The values that follow come from PMC7187165, “Structure‐Based Design, Synthesis, and Biological Evaluation of Triazole‐Based smHDAC8 Inhibitors” (Chemmedchem, 2020).

The target in data set [1] is T1, hsHDAC8 (Homo sapiens, UniProt Q9BY41).
T1 construct: made in house
T1 sequence (Q9BY41 1-377): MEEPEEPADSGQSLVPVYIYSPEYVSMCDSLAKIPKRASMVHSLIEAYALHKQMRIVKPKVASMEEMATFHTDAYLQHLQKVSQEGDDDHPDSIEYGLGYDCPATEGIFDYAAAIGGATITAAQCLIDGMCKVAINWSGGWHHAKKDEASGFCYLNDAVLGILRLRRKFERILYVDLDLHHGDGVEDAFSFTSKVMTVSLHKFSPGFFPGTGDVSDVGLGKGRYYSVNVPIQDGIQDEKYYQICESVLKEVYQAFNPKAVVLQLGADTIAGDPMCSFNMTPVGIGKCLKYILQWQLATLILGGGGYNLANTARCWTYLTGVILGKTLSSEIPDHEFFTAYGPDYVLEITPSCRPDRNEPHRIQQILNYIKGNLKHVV
Nature of the data set: In vitro hsHDAC8 inhibition, homogeneous fluorescence assay (Fluor de Lys substrate). Format: biochemical. Particulars: n=2; mean ± S.E.M.

Data set [2] concerns the target T2, hsHDAC6 (Homo sapiens, UniProt Q9UBN7).
T2 sequence (Q9UBN7 1-1215): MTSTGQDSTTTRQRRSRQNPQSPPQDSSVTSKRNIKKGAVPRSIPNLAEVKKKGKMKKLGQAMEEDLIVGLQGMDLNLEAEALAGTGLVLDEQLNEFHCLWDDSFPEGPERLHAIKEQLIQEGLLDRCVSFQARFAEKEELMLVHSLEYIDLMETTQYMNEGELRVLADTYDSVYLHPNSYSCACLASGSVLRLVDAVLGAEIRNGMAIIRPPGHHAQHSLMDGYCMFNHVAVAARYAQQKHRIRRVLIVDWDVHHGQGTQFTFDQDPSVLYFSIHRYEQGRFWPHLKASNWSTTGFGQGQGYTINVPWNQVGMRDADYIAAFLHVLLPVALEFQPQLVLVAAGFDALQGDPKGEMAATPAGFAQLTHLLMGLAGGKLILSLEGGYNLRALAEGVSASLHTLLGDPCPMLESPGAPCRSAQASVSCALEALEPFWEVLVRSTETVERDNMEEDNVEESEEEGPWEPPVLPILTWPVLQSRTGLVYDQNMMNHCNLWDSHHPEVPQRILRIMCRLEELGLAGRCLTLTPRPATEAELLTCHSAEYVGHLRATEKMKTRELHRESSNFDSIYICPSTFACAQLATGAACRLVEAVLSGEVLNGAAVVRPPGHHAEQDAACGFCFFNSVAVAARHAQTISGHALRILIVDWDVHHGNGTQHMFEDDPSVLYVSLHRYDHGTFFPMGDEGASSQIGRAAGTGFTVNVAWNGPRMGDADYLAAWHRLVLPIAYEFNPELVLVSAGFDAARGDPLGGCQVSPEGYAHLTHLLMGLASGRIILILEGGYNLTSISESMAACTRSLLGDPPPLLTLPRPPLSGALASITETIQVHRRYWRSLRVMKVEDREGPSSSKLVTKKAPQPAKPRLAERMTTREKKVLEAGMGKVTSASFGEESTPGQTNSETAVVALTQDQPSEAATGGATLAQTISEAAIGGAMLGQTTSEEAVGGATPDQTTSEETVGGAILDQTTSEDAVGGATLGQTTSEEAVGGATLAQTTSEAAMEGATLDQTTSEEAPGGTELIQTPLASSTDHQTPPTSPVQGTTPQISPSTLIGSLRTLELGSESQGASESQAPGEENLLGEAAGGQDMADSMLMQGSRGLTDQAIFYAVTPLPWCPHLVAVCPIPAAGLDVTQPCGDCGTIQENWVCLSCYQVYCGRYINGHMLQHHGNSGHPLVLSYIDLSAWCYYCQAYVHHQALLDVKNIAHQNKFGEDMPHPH
Nature of the data set: In vitro hsHDAC6 inhibition (ZMAL substrate, trypsin developer). In kind it is biochemical.

Data set [3] has as its system S. mansoni larvae (schistosomula). Description: Schistosome viability testing, resazurin-based fluorescence assay. Format: cell-based, Schistosoma mansoni. On the procedure:
Selected compounds (Table 4) were tested for their effects on the viability of S. mansoni larvae (schistosomula) using a resazurin‐based fluorescence assay that measures mitochondrial activity. Assays were carried out in triplicate on two separate batches of schistosomula and the results are expressed as the percentage of the value obtained with the solvent (DMSO). Initial testing was done at 10 μM as part of a high‐throughput screening procedure and compounds provoking at least a 25 % reduction in viability were tested at 20 μM to determine a dose‐response. […] However, the level of reduction obtained was mediocre and this compound was not considered for further testing. […] A variety of schistosome viability assays are currently used in the field [e. g. […] However, since we have compared compounds that a priori have the same biological target, it is unlikely that they will have different effects on the parasite and that a different viability assay, for example based on morphological characteristics,52 would give different results. Nevertheless, in view of the potency of the triazole‐based smHDAC8 inhibitors on the enzyme, their further development, aimed at improving their bioavailability, is justified.
Schistosome viability testing: The resazurin‐based assay to determine the effects of novel inhibitors targeting smHDAC8 on the viability of S. mansoni schistosomula was carried out exactly as previously described.27, 62 Briefly, newly transformed schistosomula (NTS) were obtained in vitro as previously described63 by mechanical transformation of S. mansoni cercaria. A suspension of NTS was prepared at a concentration of 100 per 100 μL using Medium 199 (Invitrogen) supplemented with 10 % fetal calf serum (Gibco), penicillin (50 U×mL^−1), streptomycin (50 μg×mL^−1), and rifampicin (60 μg×mL^−1). Schistosomula were kept in culture for 3 h at 37 °C and 5 % CO2 prior to use in screening. Drug stock solutions of 20 mM in DMSO were used. Mid‐dilutions were performed in 100 % DMSO and 1 μL added to 100 μL/well of M199 medium in black 96 well plates (Nunc, UK) with supplemented Medium 199 and 100 μL of the prepared NTS suspension (100 NTS/well). Live and dead schistosomula (treated with 70 % ethanol) were used as positive and negative controls. Experiments were carried out in triplicate wells in two biological replicates and the compounds were tested at final concentrations of 10 and 20 μM. After 48 h of drug exposure, 20 μL of resazurin solution (Abd Serotec) were added to each well. Finally, after 72 h of exposure, the fluorescence intensity of the highly red fluorescent resorufin product was measured using an excitation wavelength of 530 nm and an emission wavelength of 590 nm in an Infinite M200 Pro microplate reader (TECAN). Background fluorescence of the drug containing medium were determined for each drug dilution using wells containing only DMSO as control.
In general terms: Alamar Blue is a resazurin reagent that responds to reducing activity.

Data set [4] deals with T3, hsHDAC1 (Homo sapiens, UniProt Q13547). Description: In vitro hsHDAC1 inhibition (ZMAL substrate, trypsin developer). Format: biochemical. The conditions noted are these: for inhibition at 10 µM: read-out: hsHDAC1 (% inhibition, ZMAL).
T3 sequence (Q13547 whole entry): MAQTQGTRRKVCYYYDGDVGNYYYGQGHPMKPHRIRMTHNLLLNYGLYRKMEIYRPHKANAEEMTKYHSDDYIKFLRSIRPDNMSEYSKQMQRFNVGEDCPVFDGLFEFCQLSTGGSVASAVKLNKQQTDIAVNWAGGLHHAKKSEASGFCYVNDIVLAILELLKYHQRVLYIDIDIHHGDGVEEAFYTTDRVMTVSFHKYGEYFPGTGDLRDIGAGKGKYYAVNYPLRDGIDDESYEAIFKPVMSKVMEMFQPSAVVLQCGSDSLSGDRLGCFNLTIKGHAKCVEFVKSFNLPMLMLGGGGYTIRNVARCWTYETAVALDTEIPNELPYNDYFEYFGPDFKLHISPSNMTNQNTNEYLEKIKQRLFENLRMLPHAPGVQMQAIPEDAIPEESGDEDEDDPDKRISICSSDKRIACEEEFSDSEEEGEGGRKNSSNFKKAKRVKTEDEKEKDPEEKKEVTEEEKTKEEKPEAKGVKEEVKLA
Data set [5] addresses T4, smHDAC8 (Schistosoma mansoni, UniProt A5H660).
T4 construct: made in house; host or cells: E. coli
T4 sequence (A5H660 1-440): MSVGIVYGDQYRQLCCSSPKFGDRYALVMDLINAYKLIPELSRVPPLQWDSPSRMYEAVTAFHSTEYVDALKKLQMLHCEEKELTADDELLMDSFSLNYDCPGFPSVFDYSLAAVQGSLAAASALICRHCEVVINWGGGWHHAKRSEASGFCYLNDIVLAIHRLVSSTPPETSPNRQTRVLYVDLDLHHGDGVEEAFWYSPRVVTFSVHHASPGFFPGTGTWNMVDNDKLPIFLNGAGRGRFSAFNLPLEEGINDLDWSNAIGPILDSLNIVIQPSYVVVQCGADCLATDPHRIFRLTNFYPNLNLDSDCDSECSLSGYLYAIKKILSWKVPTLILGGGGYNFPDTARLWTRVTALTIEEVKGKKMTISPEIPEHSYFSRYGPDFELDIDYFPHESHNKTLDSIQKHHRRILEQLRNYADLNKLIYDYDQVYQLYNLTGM
Nature of the data set: biochemical. Format: biochemical. The conditions noted are these: for inhibition at 10 µM: read-out: smHDAC8 (% inhibition, Fluor de Lys); for inhibition at 5 µM / inhibition at 50 µM: pretest; for inhibition at 5 µM: read-out: smHDAC8 % inhibition @ 5 μM (Fluor de Lys); for inhibition at 50 µM: read-out: smHDAC8 % inhibition @ 50 μM (Fluor de Lys).

Data set [6] deals with T3, hsHDAC1. On the set-up: method as in PMID 19007204. Particulars: cited from earlier work.
For data set [7], the target named is T1, hsHDAC8. On the set-up: method as in PMID 19007204. Particulars: cited from earlier work.
The mark [8] stands for this setting: Schistosoma mansoni, 72 h, read-out: % viability of S. mansoni schistosomula.

Structures are written as SMILES. “And” between values parts separate entries of the source, which are not always exact repeats. Equal entries are not always repeated. Where two headings read alike, the source gives them in different places.

For `O=C(NO)c1cn(-c2ccccc2)nn1` [Compound 2 b, N ‐Hydroxy‐1‐phenyl‐1H‐1,2,3‐triazole‐4‐carboxamide], the IC50 (commonly the midpoint of a concentration-inhibition curve) was determined as 12.4 ± 1.08 µM in data set [1]; 42.5 ± 3.64 µM in data set [2] (n=2, mean ± S.E.M.); 4.44 ± 1.52 µM in data set [5]. The viability (as a rule, a per cent measure of how many cells are alive, often set against a control) at 10 µM in data set [3] (setting [8]) was 92.5%. Further, the inhibition (commonly the relative decrease from the control value, in per cent) at 10 µM in data set [4] came out at 8.1 ± 1%; in data set [5] (@ 10 μM, pretest n=1), 57.9%.
On to `O=C(NO)c1cn(Cc2ccccc2)nn1` [Compound 2 c], for which the melting point (in general, the temperature, or range, at which the solid turns liquid) stood at 183 °C. In data set [5] (@ 10 μM, pretest n=1), the inhibition at 10 µM was 39.6%. In addition, the “inhibition of hsHDAC1 (in words)” value in data set [6] was “weakly inhibit”. For the same molecule, the “inhibition of hsHDAC8 (in words)” value in data set [7] is “weakly inhibit”.
For `O=C(NO)c1cn(Cc2ccc(F)cc2)nn1` [Compound 2 d], in data set [5] (@ 10 μM, pretest n=1), the inhibition at 10 µM worked out at 36.1%.
Regarding `O=C(NO)c1cn(Cc2ccc(C(F)(F)F)cc2)nn1` [Compound 2 e], the melting point stood at 192 °C. For the same molecule, the IC50 in data set [1] worked out at 3.47 ± 0.53 µM. Besides, the inhibition at 10 µM in data set [2] (@ 10 μM) was determined as 2.2 ± 0.5%. Also, in data set [4], the inhibition at 10 µM was 3.3 ± 2.5%. The molecule also displayed an IC50 in data set [5] of 5.12 ± 0.64 µM. Also, in data set [5] (@ 10 μM, pretest n=1), the inhibition at 10 µM was determined as 52.5%.
As to `Cl.O=C(NO)c1cn(-c2ccc(C#Cc3ccc(CN4CCOCC4)cc3)cc2)nn1` [Compound 2 i], the melting point was 239 °C (dec.). Moreover, the inhibition at 10 µM in data set [5] (@ 10 μM, pretest n=1) was found to be 48%.
Turning to `O=C(NO)c1cn(-c2ccc(C#CC#Cc3ccccc3)cc2)nn1` [Compound 2 j, N ‐Hydroxy‐1‐[4‐(4‐phenylbuta‐1,3‐diynyl)phenyl]‐1H‐1,2,3‐triazole‐4‐carboxamide], in data set [5] (@ 10 μM, pretest n=1), the “smHDAC8 (% inhibition, Fluor de Lys)” value is “nearly no inhibitory activity” and the inhibition at 10 µM is 6.8%.
`O=C(NO)c1cn(-c2ccccc2O)nn1` [Compound 12]: in data set [5], the inhibition at 5 µM turned out to be 19.5% and the inhibition at 50 µM turned out to be 63.5%.
Turning to `O=C(NO)c1cn(-c2cc(Cl)ccc2O)nn1` [Compound 13, 1‐(5‐Chloro‐2‐hydroxyphenyl)‐N‐hydroxy‐1H‐1,2,3‐triazole‐4‐carboxamide], in data set [5], the inhibition at 5 µM stood at 14.5% and the inhibition at 50 µM was 67.3%.
Take `O=C(NO)c1cn(-c2cc(Cl)ccc2OCc2ccc3ccccc3c2)nn1` [Compound 16]: the inhibition at 50 µM in data set [5] worked out at 43.5%.
The same measure, in the same setting: the result for `O=C(NO)c1cn(-c2cc(Cl)ccc2OCc2ccc(I)cc2)nn1` [Compound 17, 1‐{5‐Chloro‐2‐[(4‐iodobenzyl)oxy]phenyl}‐N‐hydroxy‐1H‐1,2,3‐triazole‐4‐carboxamide] reads 21%.
With `Cc1ccc(Oc2ccc(Cl)cc2-n2cc(C(=O)NO)nn2)cc1` [Compound 20], in data set [5], the inhibition at 5 µM stood at 49.8% and the inhibition at 50 µM came out at 91.1%.
`O=C(NO)c1cn(-c2cc(Cl)ccc2Oc2ccc(F)cc2)nn1` [Compound 21, 1‐[5‐Chloro‐2‐(4‐fluorophenoxy)phenyl]‐N‐hydroxy‐1H‐1,2,3‐triazole‐4‐carboxamide]: the IC50 is 2.2 ± 0.68 µM in data set [1]; 0.5 µM and 0.504 µM in data set [5] (n=2, mean ± S.E.M., read-out: smHDAC8 IC50 (Fluor de Lys)). In addition, the inhibition at 5 µM is -1.5% in data set [2] (@ 5 μM), 11% in data set [4] (@ 5 μM) and 66.2% in data set [5]. Further, the inhibition at 50 µM in data set [2] (@ 50 μM) is 34.5%; in data set [4] (@ 50 μM), 38.2%; in data set [5] it was 93.4%. Moreover, in data set [3] (setting [8]), the viability at 10 µM came out at 82%.
As to `O=C(NO)c1cn(-c2ccccc2Oc2ccccc2)nn1` [Compound 28], in data set [5], the inhibition at 5 µM was found to be 49.1% and the inhibition at 50 µM turned out to be 87.9%.
Turning to `O=C(NO)c1cn(-c2cc(Cl)ccc2Oc2ccccc2)nn1` [Compound 29, 1‐(5‐Chloro‐2‐phenoxyphenyl)‐N‐hydroxy‐1H‐1,2,3‐triazole‐4‐carboxamide], in data set [3] (setting [8]), the viability at 10 µM worked out at 64.2% and the viability at 20 µM came out at 49.9%. In addition, the “reduction in viability of schistosomula (in words)” value in data set [3] (at 10 and 20 μM) was “significant reduction in viability”. Also, in data set [5], the inhibition at 5 µM was 51.4% and the inhibition at 50 µM was determined as 91.5%.
For `O=C(NO)c1cn(-c2ccccc2C(=O)c2ccccc2)nn1` [Compound 32, 1‐(2‐Benzoylphenyl)‐N‐hydroxy‐1H‐1,2,3‐triazole‐4‐carboxamide], in data set [5], the inhibition at 5 µM was determined as 23.4% and the inhibition at 50 µM was 75.4%.
